# Source: ChEMBL document CHEMBL4483862, “Open-source discovery of chemical leads for next-generation chemoprotective antimalarials” (2018)
# Test system: Plasmodium berghei
# Experiment: Luciferase/luciferin-expressing antifolate-resistant parasites were used to infect a culture of HepG2 cells that were pre-incubated with compounds. Infected hepatocytes emit light due to the luciferase reaction. Assay results are presented as the percent inhibition of light emission compared to control. […]
# Format: functional
# Details: sporozoite; for IC90: read-out: LUCIFERASE INFECTION ASSAY - IC90
# [1] = read-out: LUCIFERASE INFECTION ASSAY - IC50
SMILES,IC90,also measured
Cc1cccn2c(C(=O)NC3CCCCC3)c(NC(=O)c3cccc(F)c3)nc12,> 8.37 µM,IC50 [1]: > 8.37 µM
Cc1cnc(NC(=O)Cc2ccc3c(c2)CCC(C)(C)O3)s1,4.6 µM,"IC50 (PBLUC_HILL_SLOPE 9.94, PBLUC_R_SQUARED 0.592, read-out: LUCIFERASE INFECTION ASSAY - IC50): 3.68 µM"
O=S(=O)(c1ccc(CNc2ncnc3scc(-c4ccc(F)cc4)c23)s1)N1CCCC1,> 10 µM,"IC50 (FFLUC_HILL_SLOPE 2.33, FFLUC_R_SQUARED 0.668, PBLUC_HILL_SLOPE 11.9, PBLUC_R_SQUARED 0.757, read-out: LUCIFERASE INFECTION ASSAY - IC50): 8.74 µM"
CCOc1ccccc1/C=N/n1c(-c2ccc(CC)cc2)cs/c1=N\c1cccc(OC)c1,3.81 µM,"IC50 (PBLUC_HILL_SLOPE 10.6, PBLUC_R_SQUARED 0.562, read-out: LUCIFERASE INFECTION ASSAY - IC50): 3.1 µM"
COCCc1ccc(-c2csc(NC(=O)Cc3c[nH]c4ccccc34)n2)cc1,> 10 µM,"IC50 (HEPG2TOX_HILL_SLOPE 5.8, HEPG2TOX_R_SQUARED 0.844, read-out: LUCIFERASE INFECTION ASSAY - IC50): > 10 µM"
NC(=O)c1cccc(-c2cn3c(-c4ccc(F)c(Cl)c4)cnc3cn2)c1,> 9 µM,"IC50 (PBLUC_HILL_SLOPE 2.55, PBLUC_R_SQUARED 0.396, read-out: LUCIFERASE INFECTION ASSAY - IC50): 5.28 µM"
COC(=O)c1sc(S(C)(=O)=O)c(C#N)c1-c1cccs1,5.13 µM,"IC50 (HEPG2TOX_HILL_SLOPE 11.8, HEPG2TOX_R_SQUARED 0.984, PBLUC_HILL_SLOPE 123, PBLUC_R_SQUARED 0.486, read-out: LUCIFERASE INFECTION ASSAY - IC50): 5.04 µM"
CC(OC(=O)c1cc2ccccc2cc1O)C(=O)Nc1cccc(S(=O)(=O)N2CCOCC2)c1 (configuration not stated),> 10 µM,"IC50 (FFLUC_HILL_SLOPE 10.4, FFLUC_R_SQUARED 0.221, read-out: LUCIFERASE INFECTION ASSAY - IC50): > 10 µM"
Clc1ccc(CSC2=NNC(c3ccccn3)S2)cc1 (configuration not stated),9.43 µM,"IC50 (HEPG2TOX_HILL_SLOPE 8.57, HEPG2TOX_R_SQUARED 0.799, PBLUC_HILL_SLOPE 12, PBLUC_R_SQUARED 0.743, read-out: LUCIFERASE INFECTION ASSAY - IC50): 7.86 µM"
COc1cc(-c2cnc3cnc(-c4cccc(NC(C)=O)c4)cn23)cc(OC)c1OC,> 7.89 µM,IC50 [1]: 3.93 µM
COc1ccc(OCCN2CCN(CC(=O)Nc3nc(-c4c[nH]c5ccccc45)cs3)CC2)cc1,9.98 µM,"IC50 (FFLUC_HILL_SLOPE 11.8, FFLUC_R_SQUARED 0.598, PBLUC_HILL_SLOPE 24.3, PBLUC_R_SQUARED 0.264, read-out: LUCIFERASE INFECTION ASSAY - IC50): 9.11 µM"
Fc1ccccc1COc1ccccc1CNCc1cccnc1,> 10.2 µM,IC50 [1]: > 10.2 µM
CC(=O)Nc1cccc(Oc2ccc(C(=O)Nc3ccc4ccccc4c3)cc2[N+](=O)[O-])c1,1.68 µM,"IC50 (HEPG2TOX_HILL_SLOPE 7.7, HEPG2TOX_R_SQUARED 0.774, PBLUC_HILL_SLOPE 1.37, PBLUC_R_SQUARED 0.884, read-out: LUCIFERASE INFECTION ASSAY - IC50): 0.337 µM"
Cn1c(-c2ccco2)nc2cnc(Nc3cccc(F)c3)cc21,> 10 µM,"IC50 (HEPG2TOX_HILL_SLOPE 1.1, HEPG2TOX_R_SQUARED 0.907, read-out: LUCIFERASE INFECTION ASSAY - IC50): > 10 µM"
C/C(=N\NC(=S)NCC(C)(C)C)c1cc(F)cc(Cl)c1O,> 9.94 µM,"IC50 (PBLUC_HILL_SLOPE 12.9, PBLUC_R_SQUARED 0.356, read-out: LUCIFERASE INFECTION ASSAY - IC50): 9.7 µM"
C=CCn1c(-c2ccccc2)c(C)sc1=Nc1ccc(Cl)cc1,> 10 µM,"IC50 (PBLUC_HILL_SLOPE 11.2, PBLUC_R_SQUARED 0.0711, read-out: LUCIFERASE INFECTION ASSAY - IC50): 9.93 µM"
O=C(CCc1ccc(-c2ccccc2)o1)Nc1nc(-c2ccccn2)cs1,> 10 µM,"IC50 (FFLUC_HILL_SLOPE 12.1, FFLUC_R_SQUARED 0.705, read-out: LUCIFERASE INFECTION ASSAY - IC50): > 10 µM"
O=C(CCc1nc2ccccc2s1)OCCOc1ccccc1F,> 10 µM,IC50 [1]: > 10 µM
CCc1cn(Cc2ccccc2)c[n+]1Cc1ccccc1,> 10.5 µM,"IC50 (FFLUC_HILL_SLOPE 0.817, FFLUC_R_SQUARED 0.751, PBLUC_HILL_SLOPE 3.02, PBLUC_R_SQUARED 0.429, read-out: LUCIFERASE INFECTION ASSAY - IC50): 5.71 µM"
O=C(Nc1cccc2ccccc12)N1CCN(c2ncccc2C(F)(F)F)CC1,0.105 µM,"IC50 (HEPG2TOX_HILL_SLOPE 3.44, HEPG2TOX_R_SQUARED 0.402, PBLUC_HILL_SLOPE 82.3, PBLUC_R_SQUARED 0.563, read-out: LUCIFERASE INFECTION ASSAY - IC50): 0.102 µM"
COc1ccc(C2=Cc3nc4ccccc4n3C3(C(F)(F)F)OC(c4ccccc4)=NN23)cc1 (configuration not stated),> 10 µM,"IC50 (FFLUC_HILL_SLOPE 13.2, FFLUC_R_SQUARED 0.193, HEPG2TOX_HILL_SLOPE 11.1, HEPG2TOX_R_SQUARED 0.974, PBLUC_HILL_SLOPE 14.1, PBLUC_R_SQUARED 0.236, read-out: LUCIFERASE INFECTION ASSAY - IC50): 9.44 µM"

SMILES,IC90,also measured
O=C(NNC(=O)c1ccccc1F)c1ccc(N2CCCC2=O)cc1,> 10 µM,IC50 [1]: > 10 µM
O=C(Nc1ccc2oc(=O)[nH]c2c1)c1cnn(-c2ccc(Cl)cc2)c1,> 10 µM,IC50 [1]: > 10 µM
Cn1cc(-c2cc(-c3cccc4ccccc34)cnc2N)cn1,> 11 µM,"IC50 (PBLUC_HILL_SLOPE 11.1, PBLUC_R_SQUARED 0.24, read-out: LUCIFERASE INFECTION ASSAY - IC50): 10.4 µM"
Cc1cc(C)c(-c2csc(NC(=O)c3cc(-c4ccccc4)nn3-c3ccccc3)n2)c(C)c1,> 10 µM,"IC50 (FFLUC_HILL_SLOPE 15.4, FFLUC_R_SQUARED 0.775, read-out: LUCIFERASE INFECTION ASSAY - IC50): > 10 µM"
O=c1nc(-c2ccc3c(c2)OCCO3)[nH]c2sc(-c3ccccc3)cc12,4.31 µM,"IC50 (HEPG2TOX_HILL_SLOPE 1.86, HEPG2TOX_R_SQUARED 0.902, PBLUC_HILL_SLOPE 1.77, PBLUC_R_SQUARED 0.594, read-out: LUCIFERASE INFECTION ASSAY - IC50): 1.25 µM"
OCCCNc1nn2c(-c3cccc(Cl)c3)cnc2s1,> 10.7 µM,"IC50 (HEPG2TOX_HILL_SLOPE 8.79, HEPG2TOX_R_SQUARED 0.819, PBLUC_HILL_SLOPE 13.4, PBLUC_R_SQUARED 0.184, read-out: LUCIFERASE INFECTION ASSAY - IC50): 9.8 µM"
COc1ccc2nc(N(Cc3ccccc3)C(=O)C3Cc4ccccc4C(=O)O3)sc2c1 (configuration not stated),> 10 µM,IC50 [1]: > 10 µM
CCn1nc(C(=O)NCc2ccc(OC)cc2)c2c1CCN(C(=O)C1Cc3ccccc3O1)C2 (configuration not stated),6.24 µM,"IC50 (HEPG2TOX_HILL_SLOPE 2.42, HEPG2TOX_R_SQUARED 0.906, PBLUC_HILL_SLOPE 2.97, PBLUC_R_SQUARED 0.096, read-out: LUCIFERASE INFECTION ASSAY - IC50): 2.98 µM"
COc1ccc(OC)c(CCNc2nc3cnc(-c4cccc(Oc5ccccc5)c4)cc3n2C)c1,1.51 µM,IC50 [1]: 0.52 µM
COCC(=O)N1CCCC(C)(C(=O)NCc2cnc(C)cn2)C1 (configuration not stated),> 10.3 µM,IC50 [1]: > 10.3 µM
Clc1ccccc1C(CNc1ncnc2sccc12)N1CCCC1 (configuration not stated),> 10 µM,"IC50 (HEPG2TOX_HILL_SLOPE 0.371, HEPG2TOX_R_SQUARED 0.706, PBLUC_HILL_SLOPE 3.78, PBLUC_R_SQUARED 0.473, read-out: LUCIFERASE INFECTION ASSAY - IC50): 7.08 µM"
c1ccc2c(c1)[nH]c1nc(SCc3cn4ccsc4n3)nnc12,1.85 µM,"IC50 (PBLUC_HILL_SLOPE 2.76, PBLUC_R_SQUARED 0.824, read-out: LUCIFERASE INFECTION ASSAY - IC50): 0.836 µM"
Fc1cccc(F)c1/C=N/c1ccccc1N1CCOCC1,> 10 µM,IC50 [1]: > 10 µM
O=C(Cc1ccccc1)Nc1ccccc1C(=O)Nc1nc2ccccc2[nH]1,> 10 µM,"IC50 (HEPG2TOX_HILL_SLOPE 7.34, HEPG2TOX_R_SQUARED 0.432, read-out: LUCIFERASE INFECTION ASSAY - IC50): > 10 µM"
CCN(Cc1ccccc1)c1ccc(/C=N/N=C(N)N)cc1,5.13 µM,"IC50 (HEPG2TOX_HILL_SLOPE 8.25, HEPG2TOX_R_SQUARED 0.944, PBLUC_HILL_SLOPE 2.7, PBLUC_R_SQUARED 0.838, read-out: LUCIFERASE INFECTION ASSAY - IC50): 2.27 µM"
CCOc1ccc(C(C)=O)cc1CSc1nc2scc(-c3ccccc3)c2c(=O)n1C,> 10 µM,"IC50 (PBLUC_HILL_SLOPE 1.32, PBLUC_R_SQUARED 0.21, read-out: LUCIFERASE INFECTION ASSAY - IC50): > 10 µM"
Cn1c(=O)c2cc3cc(Cl)ccc3nc2c2c(=O)n(-c3ccccc3)c(=O)n(-c3ccccc3)c21,> 6.86 µM,"IC50 (HEPG2TOX_HILL_SLOPE 9.44, HEPG2TOX_R_SQUARED 0.957, PBLUC_HILL_SLOPE 32.7, PBLUC_R_SQUARED 0.0582, read-out: LUCIFERASE INFECTION ASSAY - IC50): 6.86 µM"
COc1cccc(-c2cnc3c(NC=O)cc(-c4ccc(OC)cc4OC)cn23)c1,0.664 µM,"IC50 (HEPG2TOX_HILL_SLOPE 0.453, HEPG2TOX_R_SQUARED 0.602, PBLUC_HILL_SLOPE 0.932, PBLUC_R_SQUARED 0.666, read-out: LUCIFERASE INFECTION ASSAY - IC50): 0.0629 µM"
CC(C)(C)c1ccc(NC(=O)NCCSCc2ccco2)cc1,> 9.93 µM,IC50 [1]: > 9.93 µM
CC(NCc1ccc(-c2ccccc2)s1)c1ccc(-n2ccnc2)cc1 (configuration not stated),> 10 µM,"IC50 (PBLUC_HILL_SLOPE 1.59, PBLUC_R_SQUARED 0.529, read-out: LUCIFERASE INFECTION ASSAY - IC50): 7.08 µM"
